Experimental data: BigSolDB 2.1

O=C(O)c1ccc(-c2ccccc2)cc1
solubility (mole fraction)
Conditions	in benzene	in ethanol	in ethyl acetate	in isobutanol	in isopropanol	in methanol	in methyl acetate	in n-butanol	in n-propanol
293.15 K	0.00101	0.00366	0.00654	0.00276	0.0039	0.00255	0.0051	0.00471	0.00426
298.15 K	0.00123	0.00436	0.00802	0.00349	0.00464	0.00304	0.00593	0.00559	0.00509
303.15 K	0.00149	0.00512	0.00923	0.00418	0.00563	0.0036	0.00704	0.00658	0.00598
308.15 K	0.00179	0.00606	0.0108	0.0051	0.00653	0.00424	0.00815	0.00775	0.00685
313.15 K	0.00214	0.0072	0.0124	0.0063	0.00779	0.00484	0.00942	0.00897	0.00817
318.15 K	0.00254	0.00831	0.0143	0.00781	0.00952	0.00584	0.0108	0.0105	0.00954
323.15 K	0.003	0.00962	0.0165	0.0093	0.0115	0.0066	0.0126	0.012	0.0112
328.15 K	0.00353	0.0109	0.019	0.0111	0.0134	0.0076	0.0145	0.0138	0.0132
